According to PubChem BioAssay AID588787 (The Scripps Research Institute Molecular Screening Center, 2011):
The source made the active and inactive calls.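 Rule for the calls: active = pPAFAH enzyme ratio at or below 0.5 while fewer than two other serine hydrolases drop that low; inactive = the rest.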

What was measured:
Experiment in all cases: serine hydrolase selectivity in soluble brain proteome, late-stage follow-up, selectivity assay for pPAFAH inhibitor project, biochemical, LC-MS/MS, mouse brain soluble proteome (AID 588787)
[1] = tested on: Pafah1b2; details: ABPP-MudPIT FP-biotin spectral counts, at 1 µM, hits give low values
[2] = tested on: Pla2g15; details: ABPP-MudPIT FP-biotin spectral counts, at 1 µM, hits give low values
[3] = tested on: Lipe; details: ABPP-MudPIT FP-biotin spectral counts, at 1 µM, hits give low values
[4] = tested on: Lyplal1; details: ABPP-MudPIT FP-biotin spectral counts, at 1 µM, hits give low values
[5] = tested on: Prepl; details: ABPP-MudPIT FP-biotin spectral counts, at 1 µM, hits give low values
[6] = tested on: Acot7; details: ABPP-MudPIT FP-biotin spectral counts, at 1 µM, hits give low values
[7] = tested on: Apeh; details: ABPP-MudPIT FP-biotin spectral counts, at 1 µM, hits give low values
[8] = target: Prolyl endopeptidase (Mus musculus) (UniProt Q9QUR6); details: ABPP-MudPIT FP-biotin spectral counts, Prep, at 1 µM, hits give low values
Prolyl endopeptidase (Mus musculus), sequence (Q9QUR6 whole entry, looked up): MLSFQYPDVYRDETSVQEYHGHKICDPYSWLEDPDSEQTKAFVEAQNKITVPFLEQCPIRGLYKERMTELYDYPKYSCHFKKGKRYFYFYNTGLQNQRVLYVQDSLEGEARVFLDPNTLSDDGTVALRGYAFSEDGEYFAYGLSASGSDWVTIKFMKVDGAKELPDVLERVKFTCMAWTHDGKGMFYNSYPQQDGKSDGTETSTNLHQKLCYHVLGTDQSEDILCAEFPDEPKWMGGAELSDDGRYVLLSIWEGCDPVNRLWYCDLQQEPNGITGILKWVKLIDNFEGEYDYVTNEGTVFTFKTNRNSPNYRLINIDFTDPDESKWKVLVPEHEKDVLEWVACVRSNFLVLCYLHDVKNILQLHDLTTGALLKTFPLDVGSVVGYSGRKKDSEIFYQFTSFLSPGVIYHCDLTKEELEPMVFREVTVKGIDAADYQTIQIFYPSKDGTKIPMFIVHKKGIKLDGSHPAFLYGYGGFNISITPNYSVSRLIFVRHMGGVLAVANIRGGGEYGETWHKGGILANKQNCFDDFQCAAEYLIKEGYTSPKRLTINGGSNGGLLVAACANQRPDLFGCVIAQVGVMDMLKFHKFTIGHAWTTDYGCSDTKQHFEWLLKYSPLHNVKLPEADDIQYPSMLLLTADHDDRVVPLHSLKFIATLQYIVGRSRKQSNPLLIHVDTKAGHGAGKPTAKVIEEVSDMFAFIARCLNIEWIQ

[9] = tested on: Dpp8; details: ABPP-MudPIT FP-biotin spectral counts, at 1 µM, hits give low values
[10] = tested on: Abhd11; details: ABPP-MudPIT FP-biotin spectral counts, at 1 µM, hits give low values
[11] = tested on: Lypla2; details: ABPP-MudPIT FP-biotin spectral counts, at 1 µM, hits give low values
[12] = target: Platelet-activating factor acetylhydrolase (Mus musculus) (UniProt Q60963); details: ABPP-MudPIT FP-biotin spectral counts, Pla2g7 (pPAFAH), at 1 µM, hits give low values
Platelet-activating factor acetylhydrolase (Mus musculus), sequence (Q60963 whole entry, looked up): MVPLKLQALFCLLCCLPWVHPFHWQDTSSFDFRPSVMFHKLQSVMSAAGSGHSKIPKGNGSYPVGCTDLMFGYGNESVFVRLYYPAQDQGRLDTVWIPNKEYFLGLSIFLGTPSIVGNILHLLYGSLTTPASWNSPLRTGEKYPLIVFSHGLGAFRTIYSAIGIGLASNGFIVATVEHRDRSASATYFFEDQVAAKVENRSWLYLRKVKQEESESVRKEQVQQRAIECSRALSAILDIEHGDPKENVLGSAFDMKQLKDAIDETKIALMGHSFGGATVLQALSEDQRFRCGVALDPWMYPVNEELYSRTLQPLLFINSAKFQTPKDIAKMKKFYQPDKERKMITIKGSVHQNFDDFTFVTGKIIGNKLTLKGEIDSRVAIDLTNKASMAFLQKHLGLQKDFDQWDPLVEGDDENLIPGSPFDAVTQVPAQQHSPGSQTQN

[13] = tested on: Magl; details: ABPP-MudPIT FP-biotin spectral counts, at 1 µM, hits give low values
[14] = target: Abhd4 (UniProt Q8VD66); details: ABPP-MudPIT FP-biotin spectral counts, at 1 µM, hits give low values
Abhd4, sequence (Q8VD66 whole entry, looked up): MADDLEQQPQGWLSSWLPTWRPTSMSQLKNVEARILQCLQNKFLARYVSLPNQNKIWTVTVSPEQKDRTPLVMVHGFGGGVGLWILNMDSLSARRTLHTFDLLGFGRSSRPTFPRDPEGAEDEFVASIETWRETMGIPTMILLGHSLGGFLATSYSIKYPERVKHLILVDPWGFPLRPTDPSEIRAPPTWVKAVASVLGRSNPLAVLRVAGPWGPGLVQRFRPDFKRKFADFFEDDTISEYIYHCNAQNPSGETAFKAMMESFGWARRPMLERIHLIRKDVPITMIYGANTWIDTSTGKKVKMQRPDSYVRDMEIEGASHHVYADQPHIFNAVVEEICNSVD

[15] = tested on: Pafah1b3; details: ABPP-MudPIT FP-biotin spectral counts, at 1 µM, hits give low values
[16] = target: Acyl-protein thioesterase 1 (Mus musculus) (UniProt P97823); details: ABPP-MudPIT FP-biotin spectral counts, Lypla1, at 1 µM, hits give low values
Acyl-protein thioesterase 1 (Mus musculus), sequence (P97823 whole entry, looked up): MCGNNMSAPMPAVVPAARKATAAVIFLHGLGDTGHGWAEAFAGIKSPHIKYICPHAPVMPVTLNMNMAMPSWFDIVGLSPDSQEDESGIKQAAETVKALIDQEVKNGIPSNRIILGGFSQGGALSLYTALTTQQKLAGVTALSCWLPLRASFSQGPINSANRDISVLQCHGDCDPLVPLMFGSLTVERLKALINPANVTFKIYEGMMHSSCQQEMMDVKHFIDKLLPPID

[17] = tested on: Es1; details: ABPP-MudPIT FP-biotin spectral counts, at 1 µM, hits give low values
[18] = tested on: Acot2; details: ABPP-MudPIT FP-biotin spectral counts, at 1 µM, hits give low values
[19] = tested on: Tpp2; details: ABPP-MudPIT FP-biotin spectral counts, at 1 µM, hits give low values
[20] = target: Palmitoyl-protein thioesterase ABHD10, mitochondrial (Mus musculus) (UniProt Q6PE15); details: ABPP-MudPIT FP-biotin spectral counts, at 1 µM, hits give low values
Palmitoyl-protein thioesterase ABHD10, mitochondrial (Mus musculus), sequence (Q6PE15 whole entry, looked up): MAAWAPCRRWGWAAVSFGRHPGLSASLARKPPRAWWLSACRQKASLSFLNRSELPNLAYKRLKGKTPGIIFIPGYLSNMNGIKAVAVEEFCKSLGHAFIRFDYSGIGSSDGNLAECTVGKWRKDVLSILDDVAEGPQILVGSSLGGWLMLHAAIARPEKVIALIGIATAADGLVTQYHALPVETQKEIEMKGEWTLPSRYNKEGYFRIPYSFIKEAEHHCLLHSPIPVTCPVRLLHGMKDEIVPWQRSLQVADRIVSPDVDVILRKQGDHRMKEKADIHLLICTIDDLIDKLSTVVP

[21] = tested on: Dpp9; details: ABPP-MudPIT FP-biotin spectral counts, at 1 µM, hits give low values
[22] = tested on: Fasn; details: ABPP-MudPIT FP-biotin spectral counts, at 1 µM, hits give low values
[23] = tested on: Pme1; details: ABPP-MudPIT FP-biotin spectral counts, at 1 µM, hits give low values
[24] = tested on: Rbbp9; details: ABPP-MudPIT FP-biotin spectral counts, at 1 µM, hits give low values
[25] = tested on: Acot1; details: ABPP-MudPIT FP-biotin spectral counts, at 1 µM, hits give low values
[26] = tested on: Esd; details: ABPP-MudPIT FP-biotin spectral counts, at 1 µM, hits give low values

- ratio of spectral counts to DMSO [1]: 1.4 (inactive)
- ratio of spectral counts to DMSO [2]: 1.1 (inactive)
- ratio of spectral counts to DMSO [3]: 0.9 (inactive)
- ratio of spectral counts to DMSO [4]: 1.1 (inactive)
- ratio of spectral counts to DMSO [5]: 1.1 (inactive)
- ratio of spectral counts to DMSO [6]: 0.8 (inactive)
- ratio of spectral counts to DMSO [7]: 1.1 (inactive)
- ratio of spectral counts to DMSO [8]: 1.2 (inactive)
- ratio of spectral counts to DMSO [9]: 1.1 (inactive)
- ratio of spectral counts to DMSO [10]: 1.2 (inactive)
- ratio of spectral counts to DMSO [11]: 1.3 (inactive)
- ratio of spectral counts to DMSO [12]: 0
- ratio of spectral counts to DMSO [13]: 0.8 (inactive)
- ratio of spectral counts to DMSO [14]: 0.8 (inactive)
- ratio of spectral counts to DMSO [15]: 1.2 (inactive)
- ratio of spectral counts to DMSO [16]: 1.1 (inactive)
- ratio of spectral counts to DMSO [17]: 0
- ratio of spectral counts to DMSO [18]: 1.1 (inactive)
- ratio of spectral counts to DMSO [19]: 0.8 (inactive)
- ratio of spectral counts to DMSO [20]: 1.1 (inactive)
- ratio of spectral counts to DMSO [21]: 1.3 (inactive)
- ratio of spectral counts to DMSO [22]: 1.1 (inactive)
- ratio of spectral counts to DMSO [23]: 1.1 (inactive)
- ratio of spectral counts to DMSO [24]: 1.1 (inactive)
- ratio of spectral counts to DMSO [25]: 1.1 (inactive)
- ratio of spectral counts to DMSO [26]: 1.1 (inactive)
Structure (SMILES): Cc1cc(N2CCN(C(=O)Oc3ccc(-c4ccccc4)cn3)CC2)c2ccccc2n1
